As usually defined, the MBC is the smallest concentration meeting the test's criterion for killing. As usually defined, the MIC is the smallest concentration in the dilution series that meets the test's criterion for growth inhibition.

Here are results for 1 compound from ChEMBL document CHEMBL5113477, “Membrane acting Povarov-Doebner derived compounds potently disperse preformed multidrug resistant Gram-positive bacterial biofilms” (Eur J Med Chem, 2022).

For assay [1], the system named is Enterococcus faecium. The assay is described as follows: Synergistic antibiofilm activity against vancomycin-resistant Enterococcus faecium ATCC 700221 in TSB broth assessed as dispersal of glucose-induced biofilm by measuring fractional inhibitory concentration index preincubated with glucose for 48 hrs followed by compound addition and further incubated for 24 hrs in presence of Nitroxoline by crystal violet staining based checkerboard assay. Format: functional.

Assay [2] has as its system Cell membrane. As to the kind of experiment: Induction of membrane depolarization in Staphylococcus aureus ATCC 25923 at 2 ug/ml incubated for 1 hr by DiOC23 dye based flow cytometry analysis. Format: subcellular. As to conditions: dose 2.0 µg/ml. A general note: In flow cytometry, cells or beads pass a laser one at a time.
Assay [3] concerns Staphylococcus aureus. As to the kind of experiment: Bactericidal activity against persister methicillin-resistant Staphylococcus aureus USA 300 at 1 times MIC incubated for 2 to 8 hrs by time kill assay. It is filed as functional, organism-based. As to conditions: time 2-8 hrs.
Assay [4] deals with Staphylococcus aureus. As to the kind of experiment: Antibacterial activity against methicillin-resistant Staphylococcus aureus USA 300 (ARLG 1561) assessed as reduction in visible bacterial growth incubated for 18 to 20 hrs by CLSI based broth microdilution analysis. It is filed as functional. The settings on record: time 18-20 hrs. For orientation: In broth dilution the organism is exposed to a series of concentrations in liquid medium.

Assay [5] concerns Staphylococcus aureus. As to the kind of experiment: Inhibition of DNA synthesis in Staphylococcus aureus ATCC 25923 at 0.25 to 8 ug/ml by [methyl]-thymidine incorporation assay. As to conditions: dose 0.25-8 µg/ml. Format: functional, organism-based. For orientation: Uptake of a labelled nucleoside into DNA is a usual measure of proliferation.
Assay [6] relates to Enterococcus faecalis. The assay is described as follows: Synergistic antibiofilm activity against vancomycin-resistant Enterococcus faecalis ATCC 51575 in TSB broth assessed as dispersal of glucose-induced biofilm by measuring Nitroxoline MBEC preincubated with glucose for 48 hrs followed by compound addition and measured after 24 hrs by crystal violet staining based checkerboard assay. It is filed as functional.

In assay [7] the test system is Cell membrane. The assay is described as follows: Induction of cell membrane disruption in Staphylococcus aureus ATCC 25923 assessed as appearance of hairy protrusions at 2 ug/ml incubated for 30 mins by SEM analysis. As to conditions: dose 2.0 µg/ml. Format: subcellular.
Assay [8] deals with Enterococcus faecium. The assay is described as follows: Antibiofilm activity against vancomycin-resistant Enterococcus faecium ATCC 700221 in TSB broth assessed as dispersal of glucose-induced biofilm at 8 to 16 ug/ml preincubated with glucose for 48 hrs followed by compound addition and measured after 24 hrs by crystal violet staining based analysis. It is filed as functional. As to conditions: dose 8-16 µg/ml, at 8 to 16 µg/mL.

Assay [9] deals with Enterococcus faecalis. The assay is described as follows: Antibacterial activity against Enterococcus faecalis ATCC 29212 assessed as reduction in visible bacterial growth incubated for 18 to 20 hrs by CLSI based broth microdilution analysis. It is filed as functional. The settings on record: time 18-20 hrs.
In assay [10] the test system is Staphylococcus aureus. The assay is described as follows: Antibacterial activity against methicillin-resistant Staphylococcus aureus USA 300 (ARLG 1570) assessed as reduction in visible bacterial growth incubated for 18 to 20 hrs by CLSI based broth microdilution analysis. It is filed as functional. The settings on record: time 18-20 hrs.
For assay [11], the system named is Enterococcus faecium. The assay is described as follows: Inhibition of biofilm formation in vancomycin-resistant Enterococcus faecium ATCC 700221 in TSB broth at 0.0078 to 4 ug/ml incubated for 48 hrs in presence of glucose by crystal violet staining based analysis. The settings on record: dose 0.0078-4 µg/ml. It is filed as functional, organism-based.
The subject of assay [12] is Staphylococcus aureus. As to the kind of experiment: Inhibition of RNA synthesis in Staphylococcus aureus ATCC 25923 at 0.25 to 8 ug/ml by [5-3H]-uridine incorporation assay. The settings on record: dose 0.25-8 µg/ml. Format: functional, organism-based.
The subject of assay [13] is Staphylococcus aureus. The assay is described as follows: Bactericidal activity against persister methicillin-resistant Staphylococcus aureus USA 300 at 1 times MIC incubated for 4 hrs by time kill assay. Format: functional.

Molecules are shown by their SMILES. ≈ marks a conversion by molar mass, not a printed value. Calls of active or inactive are those of the source.

As for `Oc1ccc([C@@H]2Nc3ccc(S(F)(F)(F)(F)F)cc3[C@H]3[C@@H]4CC[C@@H](C4)[C@H]32)cc1`, the “fractional inhibitory concentration index (FICI)” value with Enterococcus faecium [1] is 0.16. Also, the outcome with Cell membrane [2], with Staphylococcus aureus [3] and in the assay on Cell membrane [7] was Active. The minimal bactericidal concentration (MBC) with Staphylococcus aureus [4], in the assay with Enterococcus faecalis [9] and in the assay with Staphylococcus aureus [10] was 2 µg/mL (≈ 4.79 µM) in each case. For the same compound, the minimum inhibitory concentration (MIC) in the assay with Staphylococcus aureus [4] amounted to 2 µg/mL (≈ 4.79 µM); in the assay with Enterococcus faecalis [9], 2 µg/mL (≈ 4.79 µM); in the assay with Staphylococcus aureus [10], 1 µg/mL (≈ 2.4 µM). Besides, the inhibition result with Staphylococcus aureus [5], with Enterococcus faecium [11] and in the assay with Staphylococcus aureus [12] was “Active” throughout. Besides, the MBEC in the assay with Enterococcus faecalis [6] came out at 2 µg/mL. Also, the Activity is listed as 70% in the assay on Enterococcus faecium [8] and 100% in the assay with Staphylococcus aureus [13].
